# Values joined by “and” are separate entries in the source; they are usually repeats but may differ in a detail not shown here. Equal entries are not always repeated.
# How the values were obtained:
# Tyrosinase [1] = target: T1, Tyrosinase (Agaricus bisporus, UniProt O42713); test: Inhibition of mushroom tyrosinase using L-dopa as substrate preincubated for 10 mins followed by substrate addition and measured for 1 min
# T1 sequence (O42713 whole entry): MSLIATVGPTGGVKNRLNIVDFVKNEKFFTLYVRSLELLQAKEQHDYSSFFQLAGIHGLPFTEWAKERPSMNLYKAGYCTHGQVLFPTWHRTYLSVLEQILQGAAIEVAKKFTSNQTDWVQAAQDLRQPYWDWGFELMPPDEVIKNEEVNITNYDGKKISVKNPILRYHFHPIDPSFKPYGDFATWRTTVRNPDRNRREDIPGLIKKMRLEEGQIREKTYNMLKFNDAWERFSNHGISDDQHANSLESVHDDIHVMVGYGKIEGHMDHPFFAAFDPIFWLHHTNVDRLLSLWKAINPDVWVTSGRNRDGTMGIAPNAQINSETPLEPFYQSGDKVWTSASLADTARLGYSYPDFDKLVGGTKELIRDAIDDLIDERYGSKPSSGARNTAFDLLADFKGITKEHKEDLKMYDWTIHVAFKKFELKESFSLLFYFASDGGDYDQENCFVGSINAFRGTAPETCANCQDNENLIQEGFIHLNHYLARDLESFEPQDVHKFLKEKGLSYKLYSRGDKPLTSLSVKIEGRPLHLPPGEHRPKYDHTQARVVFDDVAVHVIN
# Tyrosinase [2] = target: T1, Tyrosinase
# Tyrosinase [3] = target: T1, Tyrosinase; test: Inhibition of mushroom tyrosinase using L-dopa as substrate measured for 150 secs by spectrophotometric analysis
# Tyrosinase [4] = target: T2, Tyrosinase (Mus musculus, UniProt P11344); test: Inhibition of tyrosinase in mouse B16 cells using L-DOPA as substrate preincubated for 72 hrs followed by substrate addition and measured after 30 mins; assay type: cell-based
# T2 sequence (P11344 whole entry): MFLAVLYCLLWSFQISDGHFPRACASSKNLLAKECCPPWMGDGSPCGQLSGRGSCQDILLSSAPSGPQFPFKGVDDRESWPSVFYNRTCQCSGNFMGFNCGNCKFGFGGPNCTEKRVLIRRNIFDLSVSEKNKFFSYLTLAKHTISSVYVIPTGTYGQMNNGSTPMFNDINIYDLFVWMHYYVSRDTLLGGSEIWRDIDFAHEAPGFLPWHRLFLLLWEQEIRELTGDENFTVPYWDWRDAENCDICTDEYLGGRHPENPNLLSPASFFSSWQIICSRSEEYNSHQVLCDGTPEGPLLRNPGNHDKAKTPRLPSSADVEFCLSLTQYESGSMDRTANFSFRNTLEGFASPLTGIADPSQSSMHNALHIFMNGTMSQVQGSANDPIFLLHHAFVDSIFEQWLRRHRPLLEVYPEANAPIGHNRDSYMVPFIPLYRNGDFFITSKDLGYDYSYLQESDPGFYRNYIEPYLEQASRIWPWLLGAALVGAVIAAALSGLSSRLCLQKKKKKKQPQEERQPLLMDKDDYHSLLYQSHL
# Tyrosinase [5] = target: T1, Tyrosinase; test: Non-competitive inhibition of mushroom tyrosinase by Lineweaver-Burk plot analysis
# Tyrosinase [6] = target: T1, Tyrosinase; test: Inhibition of mushroom tyrosinase monophenolase activity using L-tyrosine as substrate
# [7] = target: T3, Tyrosinase (Agaricus bisporus) (UniProt O42713); test: Mixed-type inhibition of mushroom tyrosinase after 10 mins by Lineweaver-Burk plot analysis
# T3 sequence (whole entry): T1 sequence (O42713 whole entry)
# Tyrosinase [8] = target: T1, Tyrosinase; test: Reversible competitive inhibition of mushroom tyrosinase after 10 mins by Lineweaver-Burk plot analysis
# Tyrosinase [9] = target: T1, Tyrosinase; remark: listed apart in the source
# Description: (§5) Reversible mixed-type inhibition of mushroom tyrosinase using L-dopa as substrate by Lineweaver-Burk plot analysis
# [10] = target: T3, Tyrosinase (Agaricus bisporus)
# Description: as §5
# Tyrosinase [11] = target: T1, Tyrosinase; test: Reversible inhibition of mushroom tyrosinase after 10 mins by Lineweaver-Burk plot analysis
# Tyrosinase [12] = target: T1, Tyrosinase; test: Inhibition of mushroom tyrosinase diphenolase activity using L-dopa as substrate after 10 mins by spectrophotometric analysis
# Tyrosinase [13] = target: T1, Tyrosinase; test: Inhibition of mushroom tyrosinase monophenolase activity using L-tyrosine as substrate after 10 mins by spectrophotometric analysis
# Tyrosinase [14] = target: T1, Tyrosinase; test: Inhibition of mushroom tyrosinase using L-dopa as substrate preincubated for 2 mins followed by substrate addition and measured for 5 mins by spectrophotometric analysis
# Tyrosinase [15] = target: T1, Tyrosinase; test: Reversible competitive inhibition of mushroom tyrosinase using L-dopa as substrate preincubated for 2 mins followed by substrate addition and measured for 5 mins by Lineweaver-Burk plot analysis
# Tyrosinase [16] = target: T1, Tyrosinase; test: (§1) Reversible mixed-type inhibition of mushroom tyrosinase by Lineweaver-Burk plot analysis
# [17] = target: T3, Tyrosinase (Agaricus bisporus); test: as §1
# Tyrosinase [18] = target: T1, Tyrosinase; test: (§2) Mixed-type inhibition of mushroom tyrosinase by Lineweaver-Burk plot analysis
# [19] = target: T3, Tyrosinase (Agaricus bisporus); test: as §2
# Tyrosinase [20] = target: T1, Tyrosinase; test: (§3) Mixed-type inhibition of mushroom tyrosinase using L-tyrosine as substrate by Lineweaver-Burk plot analysis
# [21] = target: T3, Tyrosinase (Agaricus bisporus); test: as §3
# Tyrosinase [22] = target: T1, Tyrosinase; test: (§4) Mixed-type inhibition of mushroom tyrosinase using L-dopa as substrate preincubated for 5 mins followed by substrate addition and measured for 3 mins
# [23] = target: T3, Tyrosinase (Agaricus bisporus); test: as §4
# Tyrosinase [24] = target: T1, Tyrosinase; test: Non-competitive inhibition of mushroom tyrosinase using L-dopa as substrate preincubated for 5 mins followed by substrate addition and measured for 5 mins
smiles,measurement,setting,value
COCCOc1ccc(/C=N/NC(N)=S)cc1,IC50,Tyrosinase [1],0.75 µM
C/C(=N\NC(N)=S)c1ccc[nH]1,IC50,Tyrosinase [2],4.15 µM
CCCOc1ccc(/C=N/NC(N)=S)cc1,IC50,Tyrosinase [1],3.03 µM
N=C(S)N/N=C/c1ccc(Oc2ccc(F)cc2)cc1,IC50,Tyrosinase [1],1.46 µM
NC(=S)N/N=C/c1cc(COC(=O)c2ccccc2)cs1,IC50,Tyrosinase [3],0.068 µM
COCCOCCOc1ccc(/C=N/NC(N)=S)cc1,IC50,Tyrosinase [1],0.34 µM
CCCC/C(=N\NC(N)=S)c1ccccc1,IC50,Tyrosinase [4],1.2 µM
CCC(=O)OCc1csc(/C=N/NC(N)=S)c1,IC50,Tyrosinase [3],0.161 µM
CCCCC/C(=N\NC(N)=S)c1ccccc1,IC50,Tyrosinase [4],< 1 µM
C/C(=N\NC(N)=S)c1ccco1,IC50,Tyrosinase [2],0.824 µM
NC(=S)N/N=C/c1cc(COC(=O)C2CCCCC2)cs1,IC50,Tyrosinase [3],0.136 µM
CN(C)c1ccc(/C=N/NC(=S)Nc2ccccc2)cc1,Ki,Tyrosinase [5],0.77 µM
same,IC50,Tyrosinase [2],0.8 µM
same,IC50,Tyrosinase [6],1.78 µM
CCOCc1csc(/C=N/NC(N)=S)c1,IC50,Tyrosinase [3],0.49 µM
NC(=S)N/N=C/c1ccc(Br)cc1,IC50,Tyrosinase [1],0.28 µM
C/C(=N\N=C(/N)S)c1ccccc1 [PHENYL(METHYL)THIOSEMICARBAZONE],IC50,Tyrosinase [4],2 µM
same,Kis,[7],0.83 µM and 1.4 µM
same,Ki,Tyrosinase [8],0.38 µM
NC(=S)N/N=C/c1ccco1,Ki,Tyrosinase [9],0.6 µM
same,Kis,[10],1.18 µM
same,IC50,Tyrosinase [2],2.35 µM
COc1ccc(OC)c(/C=N/NC(N)=S)c1,IC50,Tyrosinase [1],> 50 µM
NC(=S)N/N=C/c1ccc(O)c(O)c1,IC50,Tyrosinase [1],> 40 µM
COc1ccc(/C=N/NC(N)=S)cc1,IC50,Tyrosinase [4],139 µM
same,Kis,[7],15.1 µM
same,IC50,Tyrosinase [1],1.48 µM
same,Ki,Tyrosinase [11],1.47 µM
same,IC50,Tyrosinase [12],2.62 µM
same,IC50,Tyrosinase [13],7 µM
CNC(=S)N/N=C(\C)c1ccc(O)cc1O,IC50,Tyrosinase [14],6 µM
same,Ki,Tyrosinase [15],5 µM
NC(=S)N/N=C/c1cccc(O)c1,IC50,Tyrosinase [1],3.9 µM
NC(=S)N/N=C/c1ccc(OCOCCO)cc1,IC50,Tyrosinase [1],0.37 µM
NC(=S)N/N=C/c1ccc(OCOC(CO)CO)cc1,IC50,Tyrosinase [1],0.94 µM
NC(=S)N/N=C/c1cc(CO)cs1,IC50,Tyrosinase [3],0.67 µM
CCCCCC/C(=N\NC(N)=S)c1ccccc1,IC50,Tyrosinase [4],< 1 µM
CC(C)COc1ccc(/C=N/NC(N)=S)cc1,IC50,Tyrosinase [1],2.21 µM
CCCCCCCCCCC/C(=N\NC(N)=S)c1ccccc1,IC50,Tyrosinase [4],< 1 µM
CC/C(=N\N=C(\N)S)c1ccccc1,IC50,Tyrosinase [4],< 1 µM
NC(=S)N/N=C/c1ccc(O)cc1,Kis,[7],6.79 µM
same,IC50,Tyrosinase [1],0.41 µM
same,Ki,Tyrosinase [11],2.82 µM
same,IC50,Tyrosinase [12],3.8 µM
same,IC50,Tyrosinase [13],0.76 µM
NC(=S)N/N=C/C=C/c1ccccc1,Ki,Tyrosinase [16],4.45 µM
same,Kis,[17],8.85 µM
NC(=S)N/N=C/c1ccc[nH]1,Ki,Tyrosinase [9],0.08 µM
same,Kis,[10],0.29 µM
same,IC50,Tyrosinase [2],3.99 µM
NC(=S)N/N=C/c1ccc(Oc2ccccc2)cc1,IC50,Tyrosinase [1],0.98 µM
COCc1csc(/C=N/NC(N)=S)c1,IC50,Tyrosinase [3],0.74 µM
C/C(=N\NC(N)=S)c1cccs1,IC50,Tyrosinase [2],1.41 µM
C=CCOc1ccc(/C=N/NC(N)=S)cc1,IC50,Tyrosinase [1],1.29 µM
CNC(=S)N/N=C(\C)c1ccc(OC)cc1,IC50,Tyrosinase [14],65 µM
NC(=S)N/N=C/c1ccc(O)cc1Br,IC50,Tyrosinase [1],0.33 µM
CNC(=S)N/N=C(\C)c1ccc(OC)cc1O,IC50,Tyrosinase [14],18 µM
COCCCCOc1ccc(/C=N/NC(N)=S)cc1,IC50,Tyrosinase [1],0.41 µM
NC(=S)N/N=C/c1ccc(Cl)cc1,Ki,Tyrosinase [18],1.25 µM
same,Kis,[19],2.49 µM
same,IC50,Tyrosinase [2],1.82 µM
same,IC50,Tyrosinase [6],6.7 µM
CCCCOCCOc1ccc(/C=N/NC(N)=S)cc1,IC50,Tyrosinase [1],0.92 µM
COc1cc(/C=N/NC(N)=S)ccc1O,IC50,Tyrosinase [1],5.68 µM
NC(=S)N/N=C/c1cccs1,Ki,Tyrosinase [9],167 µM
same,Kis,[10],2.59 µM
same,IC50,Tyrosinase [2],0.43 µM
CNC(=S)N/N=C(\C)c1ccccc1,IC50,Tyrosinase [14],213 µM
CCCCOc1ccc(/C=N/NC(N)=S)cc1,IC50,Tyrosinase [1],1.31 µM
CCCC(=O)OCc1csc(/C=N/NC(N)=S)c1,IC50,Tyrosinase [3],0.105 µM
NC(=S)N/N=C/c1ccc(O)cc1O,IC50,Tyrosinase [1],0.18 µM
NC(=S)N/N=C/c1cc(O)cc(O)c1,IC50,Tyrosinase [1],> 30 µM
CC(C)/C(=N\NC(N)=S)c1ccccc1,IC50,Tyrosinase [4],< 2.3 µM
CCOc1ccc(/C=N/NC(N)=S)cc1,IC50,Tyrosinase [1],1.92 µM
NC(=S)N/N=C/c1cc(COC=O)cs1,IC50,Tyrosinase [3],0.196 µM
NC(=S)N/N=C/c1ccc(OCCO)cc1,IC50,Tyrosinase [1],0.53 µM
CN(C)c1ccc(/C=N/NC(N)=S)cc1,IC50,Tyrosinase [2],2.02 µM
same,Ki,Tyrosinase [20],1.77 µM
same,Kis,[21],6.49 µM
same,IC50,Tyrosinase [6],1.54 µM
CC(C)Oc1ccc(/C=N/NC(N)=S)cc1,IC50,Tyrosinase [1],0.9 µM
CC(C)C/C(=N\NC(N)=S)c1ccccc1,IC50,Tyrosinase [4],< 1 µM
CC(=O)OCc1csc(/C=N/NC(N)=S)c1,IC50,Tyrosinase [3],0.34 µM
CCCCCOc1ccc(/C=N/NC(N)=S)cc1,IC50,Tyrosinase [1],1.09 µM
NC(=S)N/N=C/c1ccccc1Cl,Ki,Tyrosinase [5],1.2 µM
same,IC50,Tyrosinase [2],1.22 µM
same,IC50,Tyrosinase [6],15.4 µM
NC(=S)N/N=C/c1cc(COC(=O)C2CCCC2)cs1,IC50,Tyrosinase [3],0.14 µM
NC(=S)N/N=C/c1ccc(-c2ccccc2)s1,IC50,Tyrosinase [3],0.67 µM
CCC/C(=N\NC(N)=S)c1ccccc1,IC50,Tyrosinase [4],< 1 µM
NC(=S)N/N=C/c1ccccc1O,IC50,Tyrosinase [1],0.38 µM
CCCCC(=O)OCc1csc(/C=N/NC(N)=S)c1,IC50,Tyrosinase [3],0.11 µM
NC(=S)N/N=C/c1cc(COCCO)cs1,IC50,Tyrosinase [3],1.42 µM
NC(=S)N/N=C/c1ccccc1 [PHENYLTHIOSEMICARBAZONE],Ki,Tyrosinase [22],0.93 µM
same,Kis,[23],93 µM
same,IC50,Tyrosinase [4],10.2 µM
same,Ki,Tyrosinase [24],3.7 µM
CNC(=S)N/N=C(\C)c1ccccc1O,IC50,Tyrosinase [14],108 µM
COc1ccc(/C=N/NC(N)=S)cc1O,IC50,Tyrosinase [1],4.88 µM
